Measured values published in patent publication US7008905B2, “Method of combating undesired plant growth on cereals” (BASF Aktiengesellschaft, priority 2000, dated 2006).

Legend:
Format in all cases: in vivo
PAPRH = experiment: Pre-emergence test, weed control; conditions: 3 weeks after treatment, rating 0-100 (100=death), Table 3
Experimental: (§1) The pre-emergence tests involve spraying a liquid formulation of the compound onto the soil in which the seeds of the plant species mentioned above has recently been sown.
(§2) The soil used in the tests is a prepared horticultural loam. The formulations used in the tests are prepared from solutions of the test compounds in acetone containing 0.4% by weight of an alkylphenol/ethylene oxide condensate available under the trade mark TRITON X-155.
(§3) These acetone solutions are diluted with water and the resulting formulations applied at dosage levels corresponding to 15 g, 30 g, 60 g, 120 g or 240 g of active material per hectare in a volume equivalent to 900 liters per hectare. In these tests untreated sown soil is used as control. The herbicidal effects of the test compounds are assessed visually three weeks after spraying the soil and are recorded an a 0 to 100 scale. A rating 0 indicates growth as untreated control, a rating 100 indicates death. An increase of 10 unit an the linear scale approximates to a 10% increase in the level of effect. The results of the assessment are set out in Tables 1 to 4.

VIOAR = experiment: Pre-emergence test, weed control; conditions: 3 weeks after treatment, rating 0-100 (100=death), Table 3
Experimental: as §1, §2, §3

wheat = experiment: Pre-emergence test, tolerance in wheat
Experimental: as §1, §2, §3

[1] = tested on: Triticum aestivum variety “Kanzler”; experiment: Pre-emergence test, selectivity; conditions: 3 weeks after treatment, rating 0-100 (100=death), Table 4
Experimental: as §1, §2, §3

[2] = tested on: Triticum aestivum variety “Monopol”; experiment: Pre-emergence test, selectivity; conditions: 3 weeks after treatment, rating 0-100 (100=death), Table 4
Experimental: as §1, §2, §3

Veronica persica = experiment: Pre-emergence test, weed control; conditions: 3 weeks after treatment, rating 0-100 (100=death), Table 3
Experimental: as §1, §2
(§4) In these tests untreated sown soil is used as control. The herbicidal effects of the test compounds are assessed visually three weeks after spraying the soil and are recorded an a 0 to 100 scale. A rating 0 indicates growth as untreated control, a rating 100 indicates death. An increase of 10 unit an the linear scale approximates to a 10% increase in the level of effect. The results of the assessment are set out in Tables 1 to 4.

Lamium purpureum = experiment: Pre-emergence test, weed control; conditions: 3 weeks after treatment, rating 0-100 (100=death), Table 3
Experimental: as §1, §2, §4

Stellaria media = experiment: Pre-emergence test, weed control; conditions: 3 weeks after treatment, rating 0-100 (100=death), Table 3
Experimental: as §1, §2, §4

Apera spica-venti = experiment: Pre-emergence test, weed control; conditions: 3 weeks after treatment, rating 0-100 (100=death), Table 3
Experimental: as §1, §2, §4

Alopecurus myosuroides = experiment: Pre-emergence test, weed control; conditions: 3 weeks after treatment, rating 0-100 (100=death), Table 3
Experimental: as §1, §2, §4

Poa annua = experiment: Pre-emergence test, weed control; conditions: 3 weeks after treatment, rating 0-100 (100=death), Table 3
Experimental: as §1, §2, §4

Galium aparine = experiment: Pre-emergence test, weed control; conditions: 3 weeks after treatment, rating 0-100 (100=death), Table 3
Experimental: as §1, §2, §4

Matricaria inodora = experiment: Pre-emergence test, weed control; conditions: 3 weeks after treatment, rating 0-100 (100=death), Table 3
Experimental: as §1, §2, §4

Lolium perenne = experiment: Pre-emergence test, weed control; conditions: 3 weeks after treatment, rating 0-100 (100=death), Table 3
Experimental: as §1, §2, §4

Setaria viridis = experiment: Pre-emergence test, weed control; conditions: 3 weeks after treatment, rating 0-100 (100=death), Table 3
Experimental: as §1, §2, §4

[3] = tested on: grasses and broadleaf weeds; experiment: Pre-emergence test, overall weed control
Experimental: as §1, §2, §3

With `Cc1cc(Oc2ccnc(Cl)c2)nc(-c2ccc(C(F)(F)F)cc2)n1` [REF-6] the “PAPRH weed control rating” value (PAPRH; 0.030 kg/ha) was 100, the “PAPRH weed control rating” value (PAPRH; 0.060 kg/ha) was 100 and the “PAPRH weed control rating” value (PAPRH; 0.120 kg/ha) was 100. The “PAPRH weed control rating” value (PAPRH; 0.240 kg/ha) was 100, the “VIOAR weed control rating” value (VIOAR; 0.030 kg/ha) was 99 and the “VIOAR weed control rating” value (VIOAR; 0.060 kg/ha) was 99. For the same compound, the “VIOAR weed control rating” value (VIOAR; 0.120 kg/ha) was 99, the “VIOAR weed control rating” value (VIOAR; 0.240 kg/ha) was 99 and the “maximum tolerated dose in wheat / dose at which sufficiently selective in wheat” value (wheat; in vivo) was 120 g/ha. For the same compound, the “TRZAWK rating (Selectivity)” value ([1]; 0.060 kg/ha) was 10, the “TRZAWK rating (Selectivity)” value ([1]; 0.120 kg/ha) was 12 and the “TRZAWK rating (Selectivity)” value ([1]; 0.240 kg/ha) was 25. The “TRZAWM rating (Selectivity)” value ([2]; 0.030 kg/ha) was 1, the “TRZAWM rating (Selectivity)” value ([2]; 0.060 kg/ha) was 8 and the “TRZAWM rating (Selectivity)” value ([2]; 0.120 kg/ha) was 15. The “TRZAWM rating (Selectivity)” value ([2]; 0.240 kg/ha) was 25, the “VERPE weed control rating” value (Veronica persica; 0.030 kg/ha) was 96 and the “VERPE weed control rating” value (Veronica persica; 0.060 kg/ha) was 100. For the same compound, the “VERPE weed control rating” value (Veronica persica; 0.120 kg/ha) was 100, the “VERPE weed control rating” value (Veronica persica; 0.240 kg/ha) was 100 and the “LAMPU weed control rating” value (Lamium purpureum; 0.030 kg/ha) was 85. The “LAMPU weed control rating” value (Lamium purpureum; 0.060 kg/ha) was 100, the “LAMPU weed control rating” value (Lamium purpureum; 0.120 kg/ha) was 100 and the “LAMPU weed control rating” value (Lamium purpureum; 0.240 kg/ha) was 100. The “STEME weed control rating” value (Stellaria media; 0.030 kg/ha) was 97, the “STEME weed control rating” value (Stellaria media; 0.060 kg/ha) was 100 and the “STEME weed control rating” value (Stellaria media; 0.120 kg/ha) was 100. The “STEME weed control rating” value (Stellaria media; 0.240 kg/ha) was 100, the “APESV weed control rating” value (Apera spica-venti; 0.030 kg/ha) was 100 and the “APESV weed control rating” value (Apera spica-venti; 0.060 kg/ha) was 100. The “APESV weed control rating” value (Apera spica-venti; 0.120 kg/ha) was 100, the “APESV weed control rating” value (Apera spica-venti; 0.240 kg/ha) was 100 and the “ALOMY weed control rating” value (Alopecurus myosuroides; 0.030 kg/ha) was 30. The “ALOMY weed control rating” value (Alopecurus myosuroides; 0.060 kg/ha) was 60, the “ALOMY weed control rating” value (Alopecurus myosuroides; 0.120 kg/ha) was 97 and the “ALOMY weed control rating” value (Alopecurus myosuroides; 0.240 kg/ha) was 99. For the same compound, the “POAAN weed control rating” value (Poa annua; 0.030 kg/ha) was 100, the “POAAN weed control rating” value (Poa annua; 0.060 kg/ha) was 100 and the “POAAN weed control rating” value (Poa annua; 0.120 kg/ha) was 100. The “POAAN weed control rating” value (Poa annua; 0.240 kg/ha) was 100, the “GALAP weed control rating” value (Galium aparine; 0.120 kg/ha) was 65 and the “GALAP weed control rating” value (Galium aparine; 0.240 kg/ha) was 97. For the same compound, the “MATIN weed control rating” value (Matricaria inodora; 0.030 kg/ha) was 99, the “MATIN weed control rating” value (Matricaria inodora; 0.060 kg/ha) was 100 and the “MATIN weed control rating” value (Matricaria inodora; 0.120 kg/ha) was 100. For the same compound, the “MATIN weed control rating” value (Matricaria inodora; 0.240 kg/ha) was 100, the “LOLPE weed control rating” value (Lolium perenne; 0.030 kg/ha) was 95 and the “LOLPE weed control rating” value (Lolium perenne; 0.060 kg/ha) was 100. The “LOLPE weed control rating” value (Lolium perenne; 0.120 kg/ha) was 100, the “LOLPE weed control rating” value (Lolium perenne; 0.240 kg/ha) was 100 and the “SETVI weed control rating” value (Setaria viridis; 0.030 kg/ha) was 100. For the same compound, the “SETVI weed control rating” value (Setaria viridis; 0.060 kg/ha) was 100, the “SETVI weed control rating” value (Setaria viridis; 0.120 kg/ha) was 100 and the “SETVI weed control rating” value (Setaria viridis; 0.240 kg/ha) was 100.
In the case of `FC(F)(F)c1ccc(-c2nccc(Oc3ccnc(Cl)c3)n2)cc1` [CTP, 4-(2-chloropyrid-4-yloxy)-2-(4-trifluoromethyl-phenyl)pyrimidine], the “PAPRH weed control rating” value (PAPRH; 0.030 kg/ha) is reported as 100, the “PAPRH weed control rating” value (PAPRH; 0.060 kg/ha) is reported as 100 and the “PAPRH weed control rating” value (PAPRH; 0.120 kg/ha) is reported as 100. The “PAPRH weed control rating” value (PAPRH; 0.240 kg/ha) was 100, the “VIOAR weed control rating” value (VIOAR; 0.030 kg/ha) was 99 and the “VIOAR weed control rating” value (VIOAR; 0.060 kg/ha) was 100. For the same compound, the “VIOAR weed control rating” value (VIOAR; 0.120 kg/ha) was 100, the “VIOAR weed control rating” value (VIOAR; 0.240 kg/ha) was 100 and the “maximum tolerated dose in wheat / dose at which sufficiently selective in wheat” value (wheat; pre-emergence) was 240 g/ha. For the same compound, the “TRZAWK rating (Selectivity)” value ([1]; 0.120 kg/ha) was 1, the “TRZAWK rating (Selectivity)” value ([1]; 0.240 kg/ha) was 5 and the “TRZAWM rating (Selectivity)” value ([2]; 0.060 kg/ha) was 1. For the same compound, the “TRZAWM rating (Selectivity)” value ([2]; 0.120 kg/ha) was 2, the “TRZAWM rating (Selectivity)” value ([2]; 0.240 kg/ha) was 5 and the “dose at which complete control of all the grasses and broadleaf weeds was achieved” value [3] was 120 g/ha. The “VERPE weed control rating” value (Veronica persica; 0.030 kg/ha) was 100, the “VERPE weed control rating” value (Veronica persica; 0.060 kg/ha) was 100 and the “VERPE weed control rating” value (Veronica persica; 0.120 kg/ha) was 100. For the same compound, the “VERPE weed control rating” value (Veronica persica; 0.240 kg/ha) was 100, the “LAMPU weed control rating” value (Lamium purpureum; 0.030 kg/ha) was 90 and the “LAMPU weed control rating” value (Lamium purpureum; 0.060 kg/ha) was 100. The “LAMPU weed control rating” value (Lamium purpureum; 0.120 kg/ha) was 100, the “LAMPU weed control rating” value (Lamium purpureum; 0.240 kg/ha) was 100 and the “STEME weed control rating” value (Stellaria media; 0.030 kg/ha) was 80. The “STEME weed control rating” value (Stellaria media; 0.060 kg/ha) was 100, the “STEME weed control rating” value (Stellaria media; 0.120 kg/ha) was 100 and the “STEME weed control rating” value (Stellaria media; 0.240 kg/ha) was 100. For the same compound, the “APESV weed control rating” value (Apera spica-venti; 0.030 kg/ha) was 100, the “APESV weed control rating” value (Apera spica-venti; 0.060 kg/ha) was 100 and the “APESV weed control rating” value (Apera spica-venti; 0.120 kg/ha) was 100. The “APESV weed control rating” value (Apera spica-venti; 0.240 kg/ha) was 100, the “ALOMY weed control rating” value (Alopecurus myosuroides; 0.030 kg/ha) was 15 and the “ALOMY weed control rating” value (Alopecurus myosuroides; 0.060 kg/ha) was 35. The “ALOMY weed control rating” value (Alopecurus myosuroides; 0.120 kg/ha) was 99, the “ALOMY weed control rating” value (Alopecurus myosuroides; 0.240 kg/ha) was 100 and the “POAAN weed control rating” value (Poa annua; 0.030 kg/ha) was 100. The “POAAN weed control rating” value (Poa annua; 0.060 kg/ha) was 100, the “POAAN weed control rating” value (Poa annua; 0.120 kg/ha) was 100 and the “POAAN weed control rating” value (Poa annua; 0.240 kg/ha) was 100. The “GALAP weed control rating” value (Galium aparine; 0.030 kg/ha) was 10, the “GALAP weed control rating” value (Galium aparine; 0.060 kg/ha) was 65 and the “GALAP weed control rating” value (Galium aparine; 0.120 kg/ha) was 93. For the same compound, the “GALAP weed control rating” value (Galium aparine; 0.240 kg/ha) was 95, the “MATIN weed control rating” value (Matricaria inodora; 0.030 kg/ha) was 98 and the “MATIN weed control rating” value (Matricaria inodora; 0.060 kg/ha) was 99. The “MATIN weed control rating” value (Matricaria inodora; 0.120 kg/ha) was 99, the “MATIN weed control rating” value (Matricaria inodora; 0.240 kg/ha) was 100 and the “LOLPE weed control rating” value (Lolium perenne; 0.030 kg/ha) was 93. The “LOLPE weed control rating” value (Lolium perenne; 0.060 kg/ha) was 95, the “LOLPE weed control rating” value (Lolium perenne; 0.120 kg/ha) was 98 and the “LOLPE weed control rating” value (Lolium perenne; 0.240 kg/ha) was 100. The “SETVI weed control rating” value (Setaria viridis; 0.030 kg/ha) was 98, the “SETVI weed control rating” value (Setaria viridis; 0.060 kg/ha) was 100 and the “SETVI weed control rating” value (Setaria viridis; 0.120 kg/ha) was 100. The “SETVI weed control rating” value (Setaria viridis; 0.240 kg/ha) was 100.
